Data reported in paper PMC6042386, “Molecular diversity and function of jasmintides from Jasminum sambac” (BMC Plant Biology, 2018).
Where a SMILES comes first, the peptide text is derived from it. Bridges are numbered along the chain shown (N, C = ends). [ ]: non-standard residue; d: D form. pGlu = O=C1CC[C@@H](C(=O)O)N1

Experiments:
insect Sf9 cells = experiment: Co-incubation of insect Sf9 cells with jS3 (morphology, mortality); assay type: cell-based; settings: concentrations up to 100 μM, co-incubation (Figure S6)
[1] = Human serum stability assay; assay type: in vitro ADME; settings: 25% human AB-type serum; 25% human AB-type male serum in phenol red-free DMEM, 37 °C, up to 24 h; quenched with 96% ethanol; UPLC peak area, MALDI-MS; three independent experiments, mean (n = 3); read-out: jS3 remaining intact after incubation with human serum
Method: (§1) For the thermal stability assay, jS3 were heated in boiling water for 1 h. At each time interval (1.0 h), a 30-μL sample was aliquoted and quenched in an ice bath for 15 min. For the acid stability assay, jS3 and jS4 were incubated in hydrochloric acid (pH 2.0) for 6 h. At each time interval (2, 4 and 6 h), a 30-μL sample was aliquoted and quenched by adding 1 M sodium hydroxide. For the enzymatic stability assay, jS3 and jS4 were incubated for 6 h at the optimal temperature with a buffer solution, as recommended by the manufacturer. At each time interval (2, 4 and 6 h), a 30-μL sample was aliquoted and quenched by adding 1 M hydrochloric acid. For the serum stability assay, jS3 were incubated with 25% human AB-type male serum in phenol red-free Dulbecco’s modified Eagle’s medium at 37 °C for 24 h. At each time interval (4, 8, 12 and 24 h), a 30-μL sample was aliquoted and quenched with 96% ethanol. Samples were kept at 4 °C for 15 min and then centrifuged at 18,000 rpm for 10 min. For all stability assays, the reaction mixture was analyzed by UPLC and monitored by MALDI-MS. The areas under the peak prior to and after treatment were integrated to determine stability. For each stability assay, three independent experiments were performed. At each time point, the sample was quenched by the specific reagent aforementioned and analyzed by UPLC in triplicates.

[2] = Acid stability assay (hydrochloric acid, pH 2.0); assay type: physicochemical; settings: hydrochloric acid pH 2.0, 37 °C, up to 6 h; quenched with 1 M sodium hydroxide; UPLC peak area, MALDI-MS; three independent experiments, mean (n = 3); read-out: jasmintide remaining under acidic conditions
Method: as §1

[3] = test system: Tenebrio molitor mealworm larvae; experiment: Feeding deterrent no-choice assay; assay type: in vivo; settings: 24 h, 29 ± 1 °C in the dark, 30 larvae per concentration
Method: The antifeedant activity was examined using a no-choice assay. Oat flakes were soaked in different concentrations of jS3 (0.5 to 30 mg/g of oat) and lyophilized. The control diet was prepared in the same manner without addition of jS3. Ten T. molitor larvae of similar weights (41 ± 3 mg) were placed in a tissue culture dish with 500 mg of oats. The dishes were transferred into a rearing chamber and kept at 29 ± 1 °C in the dark. After 24 h, the remaining oat flakes were weighed, and the amount consumed was calculated. In total, 30 larvae were used for each concentration, and three independent biological experiments were performed. The feeding deterrence activity was determined as follows: Feeding Deterrence IndexFDI=C−T∗100/C+T
where C represents the average weight of consumed control diet and T represents the average weight of consumed treatment diet within the groups. The overall differences in feeding amounts were compared to the control and were compared to each other using one-way ANOVA.

[4] = Thermal stability assay (boiling water); assay type: physicochemical; settings: boiling water (100 °C), quenched in ice bath 15 min, UPLC peak area before/after, monitored by MALDI-MS, three independent experiments, mean (n = 3), read-out: jasmintide remaining after thermal treatment
Method: as §1

carboxypeptidase A = experiment: Enzymatic stability assay, exopeptidase carboxypeptidase A; assay type: in vitro ADME; settings: 37 °C, manufacturer's buffer, up to 6 h, quenched with 1 M hydrochloric acid, UPLC peak area, MALDI-MS, three independent experiments, mean (n = 3), read-out: jS3 remaining intact with carboxypeptidase A
Method: as §1

trypsin = experiment: Enzymatic stability assay, endopeptidase trypsin; assay type: in vitro ADME; settings: 37 °C, manufacturer's buffer, up to 6 h, quenched with 1 M hydrochloric acid, UPLC peak area, MALDI-MS, three independent experiments, mean (n = 3), read-out: jS3 remaining intact with trypsin
Method: as §1

T. molitor larvae = experiment: Effect of jasmintide on the growth of larvae; assay type: in vivo, Tenebrio molitor
Method: At day 0, 10 T. molitor larvae of similar weights (43 ± 2 mg and 47 ± 2 mg in the treatment and control sets, respectively) were fed 200 mg of a diet containing 1 mg of jS3/g of oats. Every three days, the weights of individual larva were recorded, and larvae were transferred to a new dish with the same amount of supplemented diet to maintain a continuous supply. Three independent biological experiments were carried out over a period of 9 days. The control diet was prepared in the same manner without the addition of jS3. Student’s t-test was used to compare the mean with the control.

**Q.** With `CC[C@H](C)[C@H](NC(=O)[C@H](CC(N)=O)NC(=O)[C@@H]1CSSC[C@@H]2NC(=O)[C@H](CC(=O)O)NC(=O)[C@H](CCCNC(=N)N)NC(=O)[C@H](CO)NC(=O)[C@H]([C@@H](C)O)NC(=O)[C@H](CCC(N)=O)NC(=O)[C@@H]3CSSC[C@H](NC(=O)[C@H](C(C)C)NC(=O)[C@H]([C@@H](C)O)NC(=O)[C@H](Cc4c[nH]c5ccccc45)NC(=O)[C@H]([C@@H](C)CC)NC(=O)[C@H]([C@@H](C)CC)NC(=O)[C@H](Cc4ccc(O)cc4)NC(=O)[C@H](CC(N)=O)NC2=O)C(=O)N[C@@H](CCCNC(=N)N)C(=O)N[C@@H](CC(=O)O)C(=O)NCC(=O)N[C@@H](CSSC[C@H](NC(=O)[C@H](CC(C)C)NC(=O)[C@@H]2CCC(=O)N2)C(=O)N[C@@H](CC(C)C)C(=O)N[C@@H](CC(C)C)C(=O)N3)C(=O)N1)C(=O)N[C@@H](CO)C(=O)O` [jS3] ([pGlu]LCLLCQTSRDCNYIIWTVCRDGCCNIS-OH; disulfide 3-24, 6-20, 12-25; C-terminus assumed) as the molecule, how does the “change in morphology and mortality rate of Sf9 cells” value (insect Sf9 cells) read?
**A.** The value was “insignificant effects”.

**Q.** And the remaining at 24 h [1]?
**A.** Its remaining at 24 h is over 79%.

**Q.** And the remaining at 6 h [2]?
**A.** The remaining at 6 h was over 90%.

**Q.** And the “feeding deterrence index (FDI)” value ([3]; 1 mg/g of jasmintide in the diet (oat flakes), three independent experiments)?
**A.** Its value is 42.9%.

**Q.** And the “feeding deterrence index (FDI)” value ([3]; 30 mg/g of jasmintide in the diet (oat flakes), highest value)?
**A.** The value was 93.6%.

**Q.** What about the remaining at 1 h [4] of the same molecule?
**A.** Its remaining at 1 h is over 92%.

**Q.** And the remaining at 6 h (carboxypeptidase A)?
**A.** The remaining at 6 h was over 80%.

**Q.** And the remaining at 6 h (trypsin)?
**A.** The remaining at 6 h was over 80%.

**Q.** And the “average body weight of the treatment group after nine-day treatment” value (T. molitor larvae; after nine days on diet containing 1 mg of jS3 per gram of oat flakes, n = 30 larvae, significantly less than control (47.4 to 71.2 mg))?
**A.** The value was 62.2 mg.

**Q.** What about the “average body weight of the treatment group, start” value (T. molitor larvae; day 0, diet containing 1 mg of jS3 per gram of oat flakes, n = 30 larvae) of the same molecule?
**A.** The value was 44.3 mg.

**Q.** What about the “fatality of larvae during the period of treatment” value (T. molitor larvae; nine-day treatment, 1 mg of jS3 per gram of oat flakes) of the same molecule?
**A.** The value was “No fatality”.
